Assay results published in patent US5525735A, “Methods for synthesizing diverse collections of pyrrolidine compounds” (AFFYMAX Technologies NV, priority 1994, dated 1996).
Read-outs that look alike come from different tables or passages of the source.

Legend:
rabbit kidney ACE [1] = biological target: T1, rabbit kidney ACE (Oryctolagus cuniculus, UniProt P12822); assay: Determination of inhibition constants (Ki), fluorometric ACE assay, hydrolysis of Hippuryl-His-Leu; type: biochemical
T1 construct: purchased Sigma; host or cells: rabbit kidney
T1 sequence (P12822 34-1310): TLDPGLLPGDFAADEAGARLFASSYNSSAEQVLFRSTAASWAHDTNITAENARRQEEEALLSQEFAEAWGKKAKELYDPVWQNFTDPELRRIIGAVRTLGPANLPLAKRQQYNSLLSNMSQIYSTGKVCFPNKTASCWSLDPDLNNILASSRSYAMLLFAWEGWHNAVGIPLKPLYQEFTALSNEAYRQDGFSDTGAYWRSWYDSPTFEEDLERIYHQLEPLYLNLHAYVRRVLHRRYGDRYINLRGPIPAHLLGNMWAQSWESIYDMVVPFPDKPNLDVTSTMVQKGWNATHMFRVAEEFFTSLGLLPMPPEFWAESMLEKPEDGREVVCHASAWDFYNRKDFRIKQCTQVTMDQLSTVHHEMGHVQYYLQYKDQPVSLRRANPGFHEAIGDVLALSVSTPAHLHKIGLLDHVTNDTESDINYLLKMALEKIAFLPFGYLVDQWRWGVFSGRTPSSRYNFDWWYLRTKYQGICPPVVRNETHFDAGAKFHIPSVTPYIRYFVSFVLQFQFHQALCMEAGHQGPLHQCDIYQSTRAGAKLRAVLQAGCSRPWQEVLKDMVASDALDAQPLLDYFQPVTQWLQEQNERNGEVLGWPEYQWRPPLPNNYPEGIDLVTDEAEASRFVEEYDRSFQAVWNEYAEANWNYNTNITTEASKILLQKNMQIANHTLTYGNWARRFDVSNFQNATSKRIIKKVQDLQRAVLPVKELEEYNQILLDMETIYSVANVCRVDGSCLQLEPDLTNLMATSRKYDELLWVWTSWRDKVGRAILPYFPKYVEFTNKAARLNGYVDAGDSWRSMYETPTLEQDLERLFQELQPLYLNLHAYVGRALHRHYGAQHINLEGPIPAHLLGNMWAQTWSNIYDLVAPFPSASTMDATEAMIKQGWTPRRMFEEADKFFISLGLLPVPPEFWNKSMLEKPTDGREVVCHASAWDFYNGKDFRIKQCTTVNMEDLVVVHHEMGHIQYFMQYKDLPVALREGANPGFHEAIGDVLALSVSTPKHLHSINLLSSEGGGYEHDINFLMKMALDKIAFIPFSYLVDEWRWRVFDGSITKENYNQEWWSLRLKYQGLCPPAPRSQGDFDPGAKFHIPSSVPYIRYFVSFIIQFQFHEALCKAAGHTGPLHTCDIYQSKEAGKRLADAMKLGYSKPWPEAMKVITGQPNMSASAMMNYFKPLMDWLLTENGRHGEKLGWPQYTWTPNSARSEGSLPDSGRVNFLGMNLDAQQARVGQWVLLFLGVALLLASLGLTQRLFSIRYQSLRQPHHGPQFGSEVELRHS
Experimental: The product, His-Leu, was then derivatized to a fluorophore by the addition of 2% o-phthalaldehyde (0.1 mL) in MeOH, followed by incubation at 25° C. for 8 minutes, addition of 2N HCl (0.2 mL), and then measuring fluorescence after 15 minutes incubation at 25° C.
(§1) The fluorescence intensity (arbitrary units) was determined using an SLM Aminco model 8000 spectrofluorometer equipped with a temperature regulated cell using an excitation wavelength at 360 nm and with an emission wavelength at 490 nm. The amount of His-Leu formed with time was determined from standard curves of fluorescence versus concentration of His-Leu (Sigma).
Inhibition constants were determined from double reciprocal plots of rate of product formation versus substrate concentration in the absence and presence of inhibitor.

rabbit kidney ACE [2] = biological target: T1, rabbit kidney ACE; assay: in vitro inhibition of ACE by soluble compound pools (deconvolution analysis of library, fluorometric assay, IC50); type: biochemical; conditions: identified by iterative assay and sub-library resynthesis
Text: Functionalized prolines and proline analogs are frequently found as the C-terminal residue in numerous ACE inhibitors. Using the methods described herein, a library of prolines and proline analogs has been prepared. The library was formed by the split synthesis method^35, using four amino acids, four aldehydes, five olefins, and three mercaptoacyl chlorides as shown in FIG. 3 below. […] After cleavage from the resin (10% TFA in dichloromethane) and deacetylation of the protected mercaptoacyl proline products with ethylenediamine, the library was screened for in vitro inhibition of ACE^33 as soluble compound pools through four iterations of assay and sub-library resynthesis. At each step of this deconvolution analysis, the building block affording the most inhibitory pool was selected for the subsequent sub-library resynthesis.
To each product was added 200 μ.LAMBDA. of 1.0M ethylenediamine in methanol under nitrogen. […] The ACE inhibitory activity of each pool was immediately determined. […]
as §1, with “(Sigma). […]” for “(Sigma).”

SMILES | Ki (rabbit kidney ACE [1]; after deacetylation, isomer assigned 2-R, read-out: Ki (individual diastereomers after deacetylation, earlier eluting isomer)) [nM] | ACE inhibitory activity in words (library deconvolution) (rabbit kidney ACE [2]) | Ki (rabbit kidney ACE [1]; 50 pM enzyme, 20 minute preincubation, assay times 10 or 20 minutes, pH 8.3, read-out: Ki (dissociation constant of the enzyme-inhibitor complex)) [nM] | Ki (rabbit kidney ACE [1]; after deacetylation, read-out: Ki (individual diastereomers after deacetylation, later eluting isomer)) [nM] | type of inhibition (rabbit kidney ACE [1]; double reciprocal plots, 50 pM enzyme, 20 minute preincubation) | fold more active than captopril (rabbit kidney ACE [1]; relative to captopril in the same assay)
COC(=O)[C@@H]1C[C@H](C(=O)O)N(C(=O)[C@H](C)CS)[C@@H]1c1ccccc1 (single isomer, unassigned) [earlier eluting isomer] | > 1000 |  |  |  |  | 
COC(=O)[C@H]1C[C@@H](C(=O)O)N(C(=O)[C@H](C)CS)[C@H]1c1ccccc1 [Compound 9, 1-(3'-thio-2'(S)-methyl-1'-oxopropyl)-5-phenyl-2,4-pyrrolidinedicarboxylicacid 4-methyl ester] |  | potent ACE inhibitor | 0.16 ± 0.05 | ~0.16 | competitive type inhibition | approximately 3 fold
